# Results published in ChEMBL document CHEMBL1201862, “PubChem BioAssay data set” (2004).
# The source made the active and inactive calls.
# How the values were obtained:
# [1] = biological target: Nuclear receptor subfamily 5 group A member 2 (Homo sapiens, UniProt O00482); format: functional, cell-based;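 also: HEK293T cells transfected with LRH-1 and a StAR promoter luciferase reporter; potency for inhibitors that lower LRH-1 driven reporter light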
# [2] = nonselective StAR promoter luciferase inhibitors – cell-based, luminescence, luciferase reporter, counter-screen for LRH-1 inverse agonist project, dose response (AID 651969); format: functional
# [3] = Luminescence Cell-Based Dose Response HTS to Identify Activators of Luciferase Translation or Activity in H4 […] Cells. [Related pubchem assays: 1829 (Project Summary), 1814 (Primary HTS)]; format: functional
# H4 = assay: Luminescence Cell-Based Dose Response HTS to Identify Activators of 5'UTR Stem-Loop Driven Prion Protein mRNA Translation in H4 Neuroglioblastoma Cells. [Related pubchem assays: 1829 (Project Summary), 1814 (Primary HTS)]; format: functional; conditions: Homo sapiens
# Steroidogenic factor 1 = Steroidogenic factor 1 (Homo sapiens, UniProt Q13285); assay: Counterscreen for inverse agonists of the liver receptor homolog-1 (LRH-1; NR5A2): Luminescence-based cell-based high throughput dose response assay to identify inverse agonists of the Steroidogenic Factor 1 Nuclear Receptor (SF1; NR5A1).; format: functional
# [4] = biological target: T1, Corticotropin-releasing factor receptor 2/Corticotropin-releasing factor-binding protein (Homo sapiens, UniProt P24387+Q13324); assay: Dose Response confirmation of uHTS hits for small molecule antagonists of the CRF-binding protein and CRF-R2 receptor complex.; format: functional; conditions: read-out: IC50_Mean
# T1 sequence (Q13324 whole entry): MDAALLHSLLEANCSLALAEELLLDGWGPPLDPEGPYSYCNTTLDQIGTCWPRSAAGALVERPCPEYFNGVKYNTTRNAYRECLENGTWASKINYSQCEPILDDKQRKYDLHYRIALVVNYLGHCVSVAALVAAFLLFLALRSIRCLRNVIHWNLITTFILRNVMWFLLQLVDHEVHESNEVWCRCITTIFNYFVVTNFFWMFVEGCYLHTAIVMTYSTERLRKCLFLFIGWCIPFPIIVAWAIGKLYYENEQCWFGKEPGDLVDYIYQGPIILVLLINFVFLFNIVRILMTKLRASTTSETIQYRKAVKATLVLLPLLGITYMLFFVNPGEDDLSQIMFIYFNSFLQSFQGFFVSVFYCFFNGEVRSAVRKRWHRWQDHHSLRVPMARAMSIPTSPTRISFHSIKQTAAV
# T1 sequence (P24387 whole entry): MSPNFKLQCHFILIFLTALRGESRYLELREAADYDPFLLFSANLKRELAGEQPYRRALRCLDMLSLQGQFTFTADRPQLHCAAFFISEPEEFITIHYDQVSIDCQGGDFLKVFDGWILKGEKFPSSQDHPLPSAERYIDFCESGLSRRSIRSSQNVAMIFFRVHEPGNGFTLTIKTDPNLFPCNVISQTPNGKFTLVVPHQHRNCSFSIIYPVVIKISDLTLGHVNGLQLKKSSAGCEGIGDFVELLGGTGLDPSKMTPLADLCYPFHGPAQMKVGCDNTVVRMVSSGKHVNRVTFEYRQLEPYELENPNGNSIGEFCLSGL
# [5] = biological target: T1, Corticotropin-releasing factor receptor 2/Corticotropin-releasing factor-binding protein; assay: activators of CRF receptor 2 with binding protein – uHTS hits, confirmation (AID 602473); format: functional; conditions: read-out: EC50_Mean
# [6] = blockers of CRF-binding protein–CRF-R2 complex – cell-based, uHTS hits, 384-well, dose response (AID 651639); format: functional, Homo sapiens; conditions: read-out: IC50_Mean
# Paired box protein Pax-8 = Paired box protein Pax-8 (Homo sapiens, UniProt Q06710); assay: PAX8 transcriptional activity inhibition in RMG-I – RMG-I cells, luciferase, cherry-pick, dose response (AID 687027); format: functional, cell-based;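 also: luciferase reporter driven by Pax8 target thyroperoxidase promoter measured by SteadyGlo luminescence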
# [7] = IGROV1 cell killing – plate reader, dry powder samples, PAX8 inhibitor project, dose response (AID 743043); format: functional, cell-based; conditions: IGROV-1
# [8] = OVCAR-3 cell viability loss – plate reader, dry powder samples, PAX8 inhibitor project, dose response (AID 743044); format: functional, cell-based
# [9] = general cell-killing toxicity readout – plate reader, dry powder samples, cytotoxicity control for PAX8 inhibitor project, dose response (AID 743021); format: functional, cell-based
# [10] = OVCAR8 cell viability loss – plate reader, dry powder samples, PAX8 project, dose response (AID 743197); format: functional, cell-based; conditions: OVCAR-8
# Cytochrome P450 1A2 = biological target: T2, Cytochrome P450 1A2 (Homo sapiens, UniProt P05177);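 also: PubChem cytochrome P450 panel assay, CYP1A2 panel member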
# T2 sequence (P05177 whole entry): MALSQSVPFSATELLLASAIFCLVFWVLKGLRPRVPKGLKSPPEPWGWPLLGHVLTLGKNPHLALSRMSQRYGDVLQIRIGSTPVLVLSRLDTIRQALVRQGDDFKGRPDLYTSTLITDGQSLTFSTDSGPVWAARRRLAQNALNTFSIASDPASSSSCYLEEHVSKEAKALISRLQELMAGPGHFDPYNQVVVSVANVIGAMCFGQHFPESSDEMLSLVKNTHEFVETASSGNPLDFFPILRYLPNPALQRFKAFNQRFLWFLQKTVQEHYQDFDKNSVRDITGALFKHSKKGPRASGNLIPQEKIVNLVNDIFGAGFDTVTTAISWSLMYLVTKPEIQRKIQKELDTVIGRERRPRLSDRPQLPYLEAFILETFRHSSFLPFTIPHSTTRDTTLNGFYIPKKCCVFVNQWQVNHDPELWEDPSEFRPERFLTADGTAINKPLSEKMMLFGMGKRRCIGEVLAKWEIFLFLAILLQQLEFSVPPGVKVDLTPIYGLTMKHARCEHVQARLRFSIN
# fMet-Leu-Phe receptor = biological target: T3, fMet-Leu-Phe receptor (Homo sapiens, UniProt P21462); assay: formyl peptide receptor binders – dose response (AID 519); format: functional
# T3 sequence (P21462 whole entry): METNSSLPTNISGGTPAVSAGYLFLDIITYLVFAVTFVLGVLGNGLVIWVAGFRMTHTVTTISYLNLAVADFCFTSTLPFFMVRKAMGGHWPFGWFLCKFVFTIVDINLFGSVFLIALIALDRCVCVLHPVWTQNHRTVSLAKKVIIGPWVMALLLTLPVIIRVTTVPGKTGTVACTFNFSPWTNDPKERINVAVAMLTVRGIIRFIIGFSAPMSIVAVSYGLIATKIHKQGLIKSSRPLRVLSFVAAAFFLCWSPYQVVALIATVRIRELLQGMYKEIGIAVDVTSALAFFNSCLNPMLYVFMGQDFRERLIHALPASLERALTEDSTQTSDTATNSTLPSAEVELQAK
# Cytochrome P450 3A4 = Cytochrome P450 3A4 (Homo sapiens, UniProt P08684);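 also: CYP3A4 tested as one member of a cytochrome P450 panel screen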
# Interleukin-8 = biological target: T4, Interleukin-8 (Homo sapiens, UniProt P10145); assay: Dose Response confirmation of uHTS small molecule hits for cystic fibrosis induced NFkb Inhibitors in a PAF-induced IL8 counterscreen.; format: functional; conditions: read-out: IC50_Mean
# T4 sequence (P10145 whole entry): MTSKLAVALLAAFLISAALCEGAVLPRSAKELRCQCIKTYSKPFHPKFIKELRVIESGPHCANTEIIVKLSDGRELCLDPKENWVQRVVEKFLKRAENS
# [11] = blockade of melanocortin 4 receptor signaling – cell-based, plate reader, cherry pick, counter-screen for LGR2 antagonist project, dose response (AID 743444); format: functional;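 also: transfected HEK 293 cells stimulated with alpha-MSH peptide; potency of inhibitors of the alpha-MSH evoked signal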
# [12] = viability loss in HEK293 cells – cell-based, plate reader, cherry-picked samples, cytotoxicity control, dose response (AID 743446); format: functional
# [13] = A549 cell cytotoxicity, dose response, cytotoxicity control, plate reader, cherry-pick, antagonist series (AID 743412); format: functional, cell-based
# [14] = toxicity toward HepG2 liver cells – cell-based, plate reader, cherry-pick, antagonist series, cytotoxicity control, dose response (AID 743416); format: functional
# [15] = blockers of bursicon-stimulated LGR2 cAMP reporter – cell-based, HEK293, CRE-luciferase reporter, cherry pick, set 2, dose response (AID 743343); format: functional;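 also: transfected cells were stimulated with diluted bursicon conditioned medium after compound addition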
# [16] = biological target: T5, Rac GTPase-activating protein 1 (Homo sapiens, UniProt Q9H0H5); assay: blockers of MgcRacGAP-driven Rac1 GTP hydrolysis – biochemical, ADP Hunter fluorescence, primary and confirmatory, confirmation (AID 624330); format: functional
# T5 sequence (Q9H0H5 whole entry): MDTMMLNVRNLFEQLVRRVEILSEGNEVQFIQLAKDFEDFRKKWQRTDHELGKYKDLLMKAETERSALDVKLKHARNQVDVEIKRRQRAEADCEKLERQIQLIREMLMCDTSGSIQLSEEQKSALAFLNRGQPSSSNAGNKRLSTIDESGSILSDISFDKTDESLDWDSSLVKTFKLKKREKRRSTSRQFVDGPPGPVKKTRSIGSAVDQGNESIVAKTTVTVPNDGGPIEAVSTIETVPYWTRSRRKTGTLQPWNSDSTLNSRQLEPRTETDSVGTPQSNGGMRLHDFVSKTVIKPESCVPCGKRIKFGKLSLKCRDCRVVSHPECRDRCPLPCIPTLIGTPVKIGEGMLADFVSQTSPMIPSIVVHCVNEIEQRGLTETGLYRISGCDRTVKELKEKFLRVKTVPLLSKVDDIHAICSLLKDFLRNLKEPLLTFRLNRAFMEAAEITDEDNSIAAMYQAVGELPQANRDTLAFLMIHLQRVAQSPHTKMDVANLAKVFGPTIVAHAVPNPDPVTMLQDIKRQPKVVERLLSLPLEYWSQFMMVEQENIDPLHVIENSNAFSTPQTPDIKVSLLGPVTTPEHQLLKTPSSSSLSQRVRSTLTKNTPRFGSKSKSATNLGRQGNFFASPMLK
# [17] = biological target: T6, DNA repair protein RAD52 homolog (Homo sapiens, UniProt P43351); format: functional, biochemical
# T6 sequence (P43351 whole entry): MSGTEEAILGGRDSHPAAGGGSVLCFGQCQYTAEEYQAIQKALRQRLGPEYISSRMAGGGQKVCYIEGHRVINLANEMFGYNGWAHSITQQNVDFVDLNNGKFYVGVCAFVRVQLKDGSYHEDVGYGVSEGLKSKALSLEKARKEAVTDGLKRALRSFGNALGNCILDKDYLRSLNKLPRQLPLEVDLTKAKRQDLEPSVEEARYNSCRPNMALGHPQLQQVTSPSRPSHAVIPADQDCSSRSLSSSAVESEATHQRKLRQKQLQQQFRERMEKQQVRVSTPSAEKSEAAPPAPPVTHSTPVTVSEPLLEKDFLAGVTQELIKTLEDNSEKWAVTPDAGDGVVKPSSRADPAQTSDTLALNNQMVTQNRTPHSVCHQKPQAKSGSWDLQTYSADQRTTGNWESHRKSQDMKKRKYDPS
# Steroidogenic factor 1, sequence (Q13285 whole entry): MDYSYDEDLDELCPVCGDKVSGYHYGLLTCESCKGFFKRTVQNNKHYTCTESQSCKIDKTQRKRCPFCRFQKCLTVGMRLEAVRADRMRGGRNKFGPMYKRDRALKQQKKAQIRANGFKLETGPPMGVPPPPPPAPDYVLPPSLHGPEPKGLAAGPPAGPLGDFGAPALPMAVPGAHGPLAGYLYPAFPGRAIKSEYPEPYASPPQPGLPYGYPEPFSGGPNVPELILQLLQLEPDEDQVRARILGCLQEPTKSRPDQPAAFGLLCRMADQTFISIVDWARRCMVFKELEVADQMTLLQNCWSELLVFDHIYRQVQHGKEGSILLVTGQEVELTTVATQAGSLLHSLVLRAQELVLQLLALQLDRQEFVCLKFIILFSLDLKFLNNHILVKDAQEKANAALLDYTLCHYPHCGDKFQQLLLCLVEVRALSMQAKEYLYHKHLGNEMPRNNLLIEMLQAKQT
# Paired box protein Pax-8, sequence (Q06710 whole entry): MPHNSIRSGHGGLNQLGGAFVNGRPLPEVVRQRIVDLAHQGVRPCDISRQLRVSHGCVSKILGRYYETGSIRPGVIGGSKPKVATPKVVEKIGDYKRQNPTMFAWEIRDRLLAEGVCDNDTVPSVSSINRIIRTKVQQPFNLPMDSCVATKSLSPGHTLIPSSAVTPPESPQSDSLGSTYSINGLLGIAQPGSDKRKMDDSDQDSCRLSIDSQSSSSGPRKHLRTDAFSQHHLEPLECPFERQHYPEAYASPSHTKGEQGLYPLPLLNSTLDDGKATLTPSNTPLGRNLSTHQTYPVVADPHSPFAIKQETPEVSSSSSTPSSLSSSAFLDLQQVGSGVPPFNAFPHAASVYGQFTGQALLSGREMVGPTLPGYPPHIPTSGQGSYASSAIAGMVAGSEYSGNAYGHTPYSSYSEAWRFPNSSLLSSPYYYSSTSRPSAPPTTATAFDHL
# Nuclear receptor subfamily 5 group A member 2, sequence (O00482 whole entry): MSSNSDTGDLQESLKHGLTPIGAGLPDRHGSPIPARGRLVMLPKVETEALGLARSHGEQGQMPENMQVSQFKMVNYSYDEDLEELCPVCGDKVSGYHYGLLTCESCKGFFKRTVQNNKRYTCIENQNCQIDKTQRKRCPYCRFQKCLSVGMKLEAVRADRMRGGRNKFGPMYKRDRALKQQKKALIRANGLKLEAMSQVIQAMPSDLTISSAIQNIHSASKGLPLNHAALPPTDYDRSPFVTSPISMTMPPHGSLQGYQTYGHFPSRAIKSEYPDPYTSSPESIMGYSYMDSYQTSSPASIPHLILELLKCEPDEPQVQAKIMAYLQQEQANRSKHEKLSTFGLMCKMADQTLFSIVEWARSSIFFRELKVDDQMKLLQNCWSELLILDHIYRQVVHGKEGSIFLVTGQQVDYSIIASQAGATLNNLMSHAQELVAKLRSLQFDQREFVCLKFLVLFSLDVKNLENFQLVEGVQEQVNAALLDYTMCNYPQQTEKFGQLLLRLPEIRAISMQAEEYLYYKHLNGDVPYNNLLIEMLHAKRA
# Cytochrome P450 3A4, sequence (P08684 whole entry): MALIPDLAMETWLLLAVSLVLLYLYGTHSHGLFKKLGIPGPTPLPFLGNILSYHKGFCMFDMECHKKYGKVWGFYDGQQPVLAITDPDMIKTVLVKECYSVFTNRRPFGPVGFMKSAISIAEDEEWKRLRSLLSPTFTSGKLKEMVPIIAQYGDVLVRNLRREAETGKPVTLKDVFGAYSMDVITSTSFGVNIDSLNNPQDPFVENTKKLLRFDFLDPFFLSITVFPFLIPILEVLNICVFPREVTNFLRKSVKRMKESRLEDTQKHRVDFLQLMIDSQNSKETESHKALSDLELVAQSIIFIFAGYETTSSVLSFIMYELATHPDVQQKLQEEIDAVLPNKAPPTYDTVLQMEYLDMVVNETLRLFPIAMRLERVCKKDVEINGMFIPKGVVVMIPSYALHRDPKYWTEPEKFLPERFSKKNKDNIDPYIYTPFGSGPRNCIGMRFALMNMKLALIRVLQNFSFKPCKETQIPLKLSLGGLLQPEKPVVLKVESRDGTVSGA
smiles,measurement,setting,value
Cc1no[n+]([O-])c1COc1ccccc1/C=N/n1nnnc1N,IC50,[1],35.9 µM (inactive)
same,IC50,[2],35.9 µM (inactive)
same,EC50,[3],7.52 µM (active)
same,EC50,H4,98.6 µM (active)
same,IC50,Steroidogenic factor 1,35.9 µM (inactive)
Cc1[nH]c2nc(SCC(=O)c3cccc([N+](=O)[O-])c3)nc-2cc1Br,IC50,[4],< 0.368 µM (active)
same,EC50,[5],> 53 µM (inactive)
same,IC50,[6],6.28 µM (active)
CCS(=O)(=O)N1CC(=O)N2[C@H](CO)[C@@H](c3ccc(-c4ccccc4F)cc3)[C@H]2C1,AC50,Paired box protein Pax-8,5.26 µM (active)
same,AC50,[7],28.6 µM (active)
same,AC50,[8],14.1 µM (active)
same,AC50,[9],60.5 µM (active)
same,AC50,[10],63 µM (active)
O=C(C1=C(O)C(=O)N(Cc2ccco2)C1c1ccccc1)c1cccs1 (stereo unspecified),AC50,Cytochrome P450 1A2,25.1 µM (inconclusive)
same,Ki,fMet-Leu-Phe receptor,35.2 µM (inactive)
same,AC50,Cytochrome P450 3A4,14.1 µM (inconclusive)
CCc1cc(-c2n[nH]cc2-c2ccc(OC)cc2)c(O)cc1O,IC50,Interleukin-8,6.31 µM (active)
C[C@@H]1CCCCO[C@@H](CN(C)Cc2ccc(Cl)c(Cl)c2)[C@@H](C)CN([C@@H](C)CO)C(=O)c2cc(NC(=O)Nc3ccccc3)ccc2O1,AC50,Paired box protein Pax-8,4.6 µM (active)
same,AC50,[7],49.2 µM (active)
same,AC50,[8],30.2 µM (active)
C[C@@H]1CN([C@@H](C)CO)C(=O)c2cc(NC(=O)CCC(F)(F)F)ccc2O[C@@H](C)CCCCO[C@H]1CN(C)Cc1ccc(C(F)(F)F)cc1,AC50,Paired box protein Pax-8,2.43 µM (active)
same,AC50,[7],65.5 µM (active)
same,AC50,[8],17.2 µM (active)
same,AC50,[10],50.8 µM (active)
Cc1csc(NC(=O)CCn2c(=O)oc3ccccc32)n1,Ki,fMet-Leu-Phe receptor,> 66.7 µM (inactive)
COc1ccc(OC)c(C2C(C(=O)c3cccs3)=C(O)C(=O)N2c2cc(C)on2)c1 (stereo unspecified),Ki,fMet-Leu-Phe receptor,> 66.7 µM (inactive)
COCCNc1ccc([N+](=O)[O-])cc1C(=O)NC1CCCc2ccccc21 (stereo unspecified),IC50,[1],9.5 µM (active)
same,IC50,[2],35.9 µM (inactive)
same,IC50,Steroidogenic factor 1,5.53 µM (active)
N#C[C@H]1[C@H](c2ccc(C#Cc3ccccc3F)cc2)[C@H](CO)N1C(=O)C1CCC1,AC50,[11],14.7 µM (active)
same,AC50,Paired box protein Pax-8,11.1 µM (active)
same,AC50,[12],17.9 µM (active)
same,AC50,[13],29.7 µM (active)
same,AC50,[8],23.8 µM (active)
same,AC50,[14],32.2 µM (active)
same,AC50,[15],11.4 µM (active)
same,AC50,[9],21.9 µM (active)
CCOc1ccc(NC(=O)CSc2nncc(O)n2)cc1,IC50,[1],0.594 µM (active)
same,IC50,[2],35.9 µM (inactive)
same,IC50,Steroidogenic factor 1,0.178 µM (active)
CCCCN(CC)CCNC(=O)CCC(=O)Nc1ccc2nc(N3CCN(C)CC3)cc(C)c2c1,IC50,[16],164 µM (active)
same,AC50,[17],3.22 µM (active)
CCN(CC)C(=O)[C@H]1C[C@H](CC(=O)NC/C=C(\C)CCC=C(C)C)C(=O)N2CCc3c([nH]c4ccc(Cl)cc34)[C@]12C,IC50,[4],< 0.368 µM (active)
same,EC50,[5],> 53 µM (inactive)
same,IC50,[6],1.72 µM (active)
CCCNC(=O)CS(=O)(=O)Cc1nc(-c2cccc(OC)c2)oc1C,Ki,fMet-Leu-Phe receptor,> 66.7 µM (inactive)
